Laboratory results as given in PubChem BioAssay AID2243 (The Scripps Research Institute Molecular Screening Center, 2010).
Calls of active or inactive are those of the source. No rule for the calls is given here.

Test system: cytotoxicity counterscreen, ATP luminescence viability
Assay: cell viability loss – luminescence, cytotoxicity control for RBBP9 inhibitor project, late-stage follow-up (AID 2243)

Compound: C/C(=N\OC(=O)C1CCCCC1)c1nccs1
- CC50: > 100 µM (inactive)
